Test results published in patent publication US9492554B2, “Methods and compositions related to viral inhibition” (Clemson University Research Foundation (CURF), priority 2009, dated 2016).
Read-outs that look alike come from different tables or passages of the source.

Columns and labels:
TAR RNA [1] = assay: UV melting of TAR RNA in presence of ligands (Tm, ΔTm); assay type: binding, HIV-1
Protocol: The reactions were done in the presence of 10 mM sodium cacodylate, 0.5 mM EDTA, 0.1 mM MgCl2 pH 7.0. The heating rate was 0.3° C./min.
(§2) UV melting studies of TAR were performed in the presence and absence of various ligands (FIG. 13).

HIVNL4-3 in MT-2 cells [2] = assay: HIV antigen synthesis in treated cells, immunofluorescence assay (IFA); assay type: cell-based; details: for percentage of cells positive for HIV antigens, Day 2: MT-2 cells, microM: DPA119 24, DPA52 25, DPA53 9, DPA54 17, DPA55 4, DPA56 8, DPA121 25, virus control 15%; for percentage of cells positive for HIV antigens, Day 4 / percentage of cells positive for HIV antigens, Day 6: same concentrations, virus control 100%
Protocol: (§1) Anti-HIV activities can be routinely checked by measuring the percentage of cells positive for HIV antigens using immunofluorescence assay (IFA) and for the release of pelletable reverse transcriptase (RT) into the supernatant. For these assays, 500,000 MT-2 cells in 1 ml of media were added to the wells of a 24 well tissue culture plate. Next, 0.5 ml of 4× concentrated compound was added to triplicate wells of the plate. The cells and compounds were incubated for 1 hr at 37 C. Finally, 0.5 ml of HIVNL4-3, produced in H9 cells (a CD4+ lymphoblastoid cell line), 100,000 cpm of RT activity per well, was added to each well. Virus control wells contained no compounds. This inoculum is at a multiplicity of infection less than 1. On days 2, 4, and 6, 0.75 mls of supernatants were removed and placed into individual microfuge tubes for RT assay. Next, cells were resuspended in the media and 0.5 mls of the total remaining volume was removed for IFA. Cells were combined from their triplicate infections, pelleted, and the enriched cells were air-dried onto glass slides. The dried cells were fixed in acetonemethanol (50:50). After fixing, cells were stained with HIV immunoglobulin, washed in PBS, and counter-stained with FITC-conjugated goat and human IgG. Slides were washed in PBS and the percentage of HIV-positive cells was determined by epifluorescence (Robinson et al. J Acquire Immune Defic Syndr 2:33-42, 1989).

HIV = assay: Protection from HIV cytopathic effects; assay type: cell-based; details: for Maximum protection: maximum protection from HIV cytopathic effects, water control 2%; for concentration at which maximum protection achieved, microM: value in parentheses beside maximum protection
HIV-1 TAR RNA = HIV-1 TAR RNA competition FRET binding assay (Tat peptide probe); details: 100 nM TAR RNA, 100 nM Tat peptide, 25° C., 60 min
cells [3] = system: cells
HIVNL4-3 in MT-2 cells [4] = assay: Release of reverse transcriptase into the culture supernatant; assay type: cell-based, HIV; details: for Release of reverse transcriptase into the culture supernatant, Day 2: mean of triplicate infections (SD), microM: DPA119 24, DPA52 25, DPA53 9, DPA54 17, DPA55 4, DPA56 8, DPA121 25, virus control 46,029; for Release of reverse transcriptase into the culture supernatant, Day 4 / Release of reverse transcriptase into the culture supernatant, Day 6: mean of triplicate infections; for Release of reverse transcriptase into the culture supernatant, Day 4: virus control 928,112; for Release of reverse transcriptase into the culture supernatant, Day 6: virus control 1,078,741
Description: as §1, with “The disclosed conjugates also reduce the amount of reverse transcriptase (RT) released into the cell culture supernatant upon in vitro cell culture experiments (Table 14 below). […] It is possible that even though the cells are positive for HIV, they are making much fewer unspliced transcripts, and thus the virion release into the media remains suppressed. […] Anti-HIV” for “Anti-HIV”, “On days 2, 4, and 6, 0.75 mls of supernatants were removed and placed into individual microfuge tubes for RT assay.” left out, “[…] The supernatants from each well were precipitated at 4 C overnight in a solution including 30% polyethylene glycol. After precipitation, precipitate was lysed in a solution containing Triton X100, Tris buffer, and DTT. RT activity of each aliquot was determined as incorporation of 3H-dTTP into a poly rA-oligo dT template. After a one hour assay at 37 C, the incorporated dTTP was precipitated onto a ZetaProbe (BioRad) membrane. Slots were excised and placed into liquid scintillation cocktail. After overnight incubation, counts per minute for each sample was determined on a beta counter. Results were calculated as cpm/ml of original culture supernatant (Robinson et al.” for “J Acquire Immune Defic Syndr 2:33-42, 1989).”

HIV-1 RRE RNA = HIV-1 RRE RNA competition binding assay (fluorescence polarization, Rev peptide probe); details: 100 nM RRE RNA, 10 nM Rev peptide, 25° C., 1 hour; Table 16
Protocol: Before used, HIV-1 RRE RNA (5′-GGUCUGGGCGCAGCGCAAGCUGACGGUACAGGCC-3′, Thermo Scientific) in 10 μM batch in sterile water was heated to 95° C. for 3 min, and then cooled to ambient temperature over 1 hour.
The relative affinity of each compound for HIV-1 RRE RNA was determined using fluorescence polarization-based competitive binding assay with a fluorescein-labeled HIV-1 Rev peptide. The anisotropy experiments were performed with a Spectra Max Fluorimeter (Molecular Devices) at 25° C., with excitation and emission wavelengths of 485 and 525 nm, respectively. All samples were prepared in 96 well plates in binding buffer (30 mM Hepes, 100 mM KCl, 40 mM NaCl, 10 mM NH4OAc, 10 mM Guanidinium Hydrochloride, 2 mM MgCl2, 0.5 mM EDTA, pH 7.4) with 0.01% triton-X100 (Sigma). The binding data reported for each conjugate are the averages of 3˜5 individual measurements.
A solution of 100 nM RRE RNA and 10 nM fluorescein-labeled HIV-1 Rev peptide was incubated at 25° C. After 10 min, appropriate concentrations (0 nM to 500 μM) of the antagonists were added; total volume of the incubation solution was […]. After 1 hour, the amount of the dissociated fluorescent probe was determined by the Spectra Max fluorescence plate reader. The experimental dose-response data for a given antagonist were fit to a sigmoidal dose-response nonlinear regression model on GraphPad Prism 4.0 to afford the IC50 values for each conjugates (Table 16).

TAR RNA [5] = details: inhibition of Tat peptide binding to the TAR RNA; cited from earlier work
cells [6] = assay: 5% Toxicity concentration (concentration at which 5% or less cell death is seen)
[7] = biological target: site 1 thymidylate synthetase RNA; details: CC bubble of site 1 thymidylate synthetase RNA; read-out: binding constant; cited from earlier work
TAR [8] = details: ligands to TAR, from UV melting studies
Protocol: The bottom line represents the control which is TAR without any ligands. […] The reactions were done in the presence of 10 mM sodium cacodylate, 0.5 mM EDTA, 0.1 mM MgCl2 pH 7.0. The heating rate was 0.3° C./min.
as §2

TAR [9] = details: argininamide binding site of TAR; read-out: binding constant; cited from earlier work
TAR [10] = details: binds TAR; read-out: affinity; cited from earlier work
TAR RNA [11] = assay: ITC titration of TAR RNA with Neomycin; assay type: binding, HIV-1; details: 20° C.

| Compound | percentage of cells positive for HIV antigens, Day 2 (HIVNL4-3 in MT-2 cells [2]) | percentage of cells positive for HIV antigens, Day 4 (HIVNL4-3 in MT-2 cells [2]) [%] | percentage of cells positive for HIV antigens, Day 6 (HIVNL4-3 in MT-2 cells [2]) [%] | IC50 (HIV-1 TAR RNA; Table 17) [µM] | 5% Toxicity microM (cells [3]) [µM] | Release of reverse transcriptase into the culture supernatant, Day 2 (HIVNL4-3 in MT-2 cells [4]) | Release of reverse transcriptase into the culture supernatant, Day 4 (HIVNL4-3 in MT-2 cells [4]) | Release of reverse transcriptase into the culture supernatant, Day 6 (HIVNL4-3 in MT-2 cells [4]) | IC50 (HIV-1 RRE RNA) [µM] | IC50 (TAR RNA [5]) [µM] | Maximum protection (HIV) [%] | concentration at which maximum protection achieved, microM (HIV) | Binding Constant (TAR [8]) [M⁻¹] | other results |
| --- | --- | --- | --- | --- | --- | --- | --- | --- | --- | --- | --- | --- | --- | --- |
| CN1CCN(c2ccc3nc(-c4ccc(OCCn5cc(COCc6cn(C[C@H]7OC(OC8C(O)[C@H](N)CC(N)[C@H]8O[C@H]8OC(CN)[C@@H](O)C(O)C8N)C(O)C7O[C@H]7OC(CN)[C@@H](O)C(O)C7N)nn6)nn5)cc4)[nH]c3c2)CC1 (some centres unmarked) [DPA119] | 5-7% | 90 | 100 | 0.464 ± 0.146 | 94 | 16,576 (3,815) cpm/ml | 241,955 cpm/ml | 399,421 cpm/ml |  |  |  |  |  | ΔTm (° C.) (TAR RNA [1]; TAR RNA with ligand vs control, Table 10): 4.2 °C; Tm (° C.) (TAR RNA [1]; TAR RNA with ligand, control without ligand 69.3): 73.5 °C; protection from HIV cytopathic effects (HIV; at 24 microM): 16% |
| CN1CCN(c2ccc3nc(-c4ccc(OCCn5cc(CCCCc6cn(C[C@H]7OC(OC8C(O)[C@H](N)CC(N)[C@H]8O[C@H]8OC(CN)[C@@H](O)C(O)C8N)C(O)C7O[C@H]7OC(CN)[C@@H](O)C(O)C7N)nn6)nn5)cc4)[nH]c3c2)CC1 (some centres unmarked) [DPA121] | 15% | 100 | 100 | 0.686 ± 0.11 | >186 | 26,499 (5,566) cpm/ml | 579,856 cpm/ml | 880,573 cpm/ml | 30.5 ± 11.1 |  |  |  |  |  |
| [H]/N=C(/N)N[C@H]1[C@H](O)[C@@H](O)[C@H](O[C@@H]2O[C@@H](C)[C@](O)(C=O)[C@H]2O[C@@H]2O[C@@H](CO)[C@H](O)[C@@H](O)[C@@H]2NC)[C@@H](N/C(N)=N\[H])[C@@H]1O [DPA 506, streptomycin, reference compound] |  |  |  |  |  |  |  |  | > 500 | 9.5 ± 0.8 |  |  |  | IC50 (HIV-1 TAR RNA; Table 18): 17.4 ± 4.3 µM |
| CN1CCN(c2ccc3[nH]c(-c4ccc5[nH]c(-c6ccc(O)cc6)nc5c4)nc3c2)CC1 [Hoechst 33258] |  |  |  | 6.6 ± 1.5 |  |  |  |  |  |  | 2 | (2) microM | 420000 | 5% Toxicity microM (cells [6]): 18 µM; Kd [7]: < 0.1 µM |
| N=C(N)NCCC[C@H](N)C(N)=O [argininamide] |  |  |  |  |  |  |  |  |  |  |  |  |  | Kd (TAR [9]): ~0.001 µM |
| neomycin |  |  |  | 0.713 ± 0.165 |  |  |  |  |  | 0.92 ± 0.09 | 9 | (206) microM | 170000 | ΔTm (TAR RNA [1]; Melting point stabilization of HIV-TAR RNA by Neo Neo dimers, Table 11): 0.2 °C; Kd (TAR [10]): ~6 µM; K (TAR RNA [11]): (6.61 ± 0.84) × 10^5 |
